In patent US6835819B2, “Sequences and their use” (Metcon Medicin AB, priority 2000, dated 2004):

Key:
Assay type in all cases: cell-based, mouse
[1] = test system: IRS-2 mRNA; experiment: IRS-2 mRNA expression (Northern blots) in differentiated 3T3-L1 adipocytes; conditions: for effect on IRS-2 gene expression: FIG. 2: 10 μM darglitazone with 100 nM insulin, 10 μM WY14643 with or without insulin, 100 nM progesterone, 200 μM 8-BrcAMP
Protocol: (§1) 3T3-L1 fibroblasts were grown and differentiated into adipocytes according to Rubin et al., 1977). At least 90% of the cells had acquired the adipocyte phenotype 6 days after initiating differentiation. Eight days after differentiation, the medium was changed and the various agents added for the times indicated in the Results.
(§2) Total cellular RNA was isolated from cells with guanidinium thiocyanate, as described (Chirgwin et al. 1979). Northern blot analyses were performed on total cellular RNA (30 μg) with labeled cDNA probes made against β-actin as housekeeping gene, mouse IRS-1 (bp 1333-2335) and mouse IRS-2 (bp 2987-3325) (kindly provided by Drs. J. Pierce and L-M Wang, NCI, NIH), rodent GLUT4 (bp 121-2128, Accession Nr NM 001042, kindly provided by Dr. Sam W. Cushman, NIDDK, NIH) and PKB/Akt using a PCR fragment against PKBβ (bp 282-1130, Accession Nr M95936) in a common sequence for PKBα, PKBβ and PKBγ. 5′ sequence […] and 3′ sequence […] were used as PCR primers (SEQ. ID. NO. 13 and 14, respectively).

[2] = test system: IRS-1 mRNA; experiment: IRS-1 mRNA expression (Northern blots) in differentiated 3T3-L1 adipocytes; conditions: 48 hrs; insulin alone or combined with PPARγ ligand; same experiments as IRS-2
Protocol: as §1, §2

[3] = test system: PKB/Akt mRNA; experiment: PKB/Akt mRNA expression (Northern blots) in differentiated 3T3-L1 adipocytes; conditions: 48 hrs; insulin alone or combined with PPARγ ligand; same experiments as IRS-2
Protocol: as §1, §2

[4] = test system: IRS-2 protein; experiment: IRS-2 protein expression (immunoblot) in differentiated 3T3-L1 cells
Protocol: (§3) 3T3-L1 fibroblasts were grown and differentiated into adipocytes according to Rubin et al., 1977). At least 90% of the cells had acquired the adipocyte phenotype 6 days after initiating differentiation. Eight days after differentiation, the medium was changed and the various agents added for the times indicated in the Results. Cell lysates were prepared as described by Rondinone et al. 1997. Equal amounts of protein were separated by SDS/PAGE, transferred and immunoblotted with appropriate antibodies against the specific proteins. Phosphotyrosines were immunoblotted with antibody PY99 (Transduction Laboratories, Lexington, N.Y.), GLUT4 with an antibody kindly provided by Dr. Sam W. Cushman (NIDDK, NIH), IRS-1 and IRS-2 with antibodies from Upstate Biotechnology, Inc. (Lake Placid, N.Y.) and PKB/Akt with antibodies from Biolab (Boston, Mass.). Immunoprecipitations were performed as described (Rondinone et at., 1997) and individual proteins were detected by blotting with horseradish peroxidase-linked secondary antibodies and using enhanced chemiluminescence (Nycomed Amersham plc., UK).

[5] = test system: IRS-1 protein; experiment: IRS-1 protein expression (immunoblot) in differentiated 3T3-L1 cells
Protocol: as §3

[6] = test system: PKB/Akt protein; experiment: PKB/Akt protein expression in differentiated 3T3-L1 cells; conditions: pioglitazone and/or insulin for 48 hrs
Protocol: as §3

[7] = test system: PKB/Akt phosphorylation; experiment: Acute insulin-stimulated PKB/Akt phosphorylation (immunoblot) in pre-cultured 3T3-L1 adipocytes; conditions: cells cultured with agent alone for 48 hrs, serum-starved 3 hrs, then 100 nM insulin 10 min
Protocol: Lysates were prepared from cells that had been cultured for 48 hrs as in FIG. 3A, serum-starved for 3 hrs, and then stimulated with 100 nM insulin for 10 min. Following separation on 7.5% SDS-PAGE, the proteins were immunoblotted with antibodies recognizing insulin-stimulated phosphoserine (PS-PKB) and phosphothreonine (PThr-PKB) PKB/Akt.
To study the acute effect of insulin, the cells were serum-deprived for 3 hrs before adding 100 nM insulin for 15 min.
The present inventor also examined the acute effect of insulin on down-stream activation of PKB/Akt in cells that had been cultured with pioglitazone for 48 hrs, washed and serum-starved for 3 hrs in fresh medium. […] Insulin (100 nM) was then added for 10 min to the serum-starved cells.

With Nc1ncnc2c1nc(Br)n2[C@@H]1O[C@@H]2COP(=O)(O)O[C@H]2[C@H]1O [8-BrcAMP] the “effect on IRS-2 gene expression” value ([1]; 48 hrs) was “no effects were seen”.
In the case of Cc1cccc(Nc2cc(Cl)nc(SCC(=O)O)n2)c1C [WY14643], the “average increase of IRS-2 mRNA expression” value ([1]; 10 μM, n=2, also when insulin was added (FIG. 2 middle)) is reported as 9%, the “effect on IRS-2 gene expression” value ([1]; 48 hrs) is reported as “completely without effect” and the “gene expression of IRS-1” value [2] is reported as “no effect was seen”. The “gene expression of PKB/Akt” value [3] was “no effect was seen”.
With Cc1oc(-c2ccccc2)nc1CCC(=O)c1ccc(CC2SC(=O)NC2=O)cc1 (stereo not drawn) [darglitazone] the “gene expression of IRS-1” value [2] was “Neither insulin alone nor when combined with the PPARγ ligands, pioglitazone or darglitazone (not shown), altered” and the “gene expression of PKB/Akt” value [3] was “Neither insulin alone nor when combined with the PPARγ ligands, pioglitazone or darglitazone (not shown), altered”.
CCc1ccc(CCOc2ccc(CC3SC(=O)NC3=O)cc2)nc1 (stereo not drawn) [pioglitazone] was tested, and the “average increase of IRS-2 mRNA expression” value ([1]; 1 μM, n=2) was 230%, the “increase of IRS-2 mRNA” value ([1]; 10 μM pioglitazone in combination with 100 nM insulin, 48 hrs (FIG. 1A top)) was roughly 4 fold and the “average increase of IRS-2 mRNA expression” value ([1]; 10 μM, same experiments as 1 μM, n=2) was 292%. For the same compound, the “increase of IRS-2 mRNA levels relative to β-actin mRNA” value ([1]; after 48 hrs, 5 experiments (FIG. 1B top)) was 3-5 fold, the “average increase of IRS-2 protein expression” value ([4]; after 48 hrs) was 36% and the “change of IRS-1 protein expression” value ([5]; insulin and pioglitazone combined, three experiments, range 18-39%) was −31%. For the same compound, the “change of IRS-1 protein expression” value ([5]; pioglitazone alone, three experiments) was “+7%”.
In the case of CC(=O)[C@H]1CC[C@H]2[C@@H]3CCC4=CC(=O)CC[C@]4(C)[C@H]3CC[C@]12C [progesterone], the “effect on IRS-2 gene expression” value ([1]; 48 hrs) is reported as “no effects were seen”.
In the case of insulin, the “further increase of IRS-2 mRNA by addition of insulin to pioglitazone” value ([1]; 100 nM insulin added to 10 μM pioglitazone, 48 hrs (FIG. 1A bottom)) is reported as “no further increase”, the IRS-2 gene expression ([1]; insulin alone (100 nM), 48 hrs) is reported as “did not change” and the IRS-2 protein expression ([4]; 48 hrs, 10 μM pioglitazone or 100 nM insulin (FIG. 1B bottom)) is reported as “not changed”. For the same compound, the “gene expression of IRS-1” value [2] was “Neither insulin alone nor when combined with the PPARγ ligands, pioglitazone or darglitazone (not shown), altered”, the “gene expression of PKB/Akt” value [3] was “Neither insulin alone nor when combined with the PPARγ ligands, pioglitazone or darglitazone (not shown), altered” and the “decrease of IRS-1 protein expression” value ([5]; insulin alone, three experiments, range 25-39%) was 33%. For the same compound, the IRS-1 protein expression ([5]; pioglitazone alone or insulin alone, chronic (FIG. 3B bottom)) was “reduced”, the PKB/Akt protein expression [6] was “not changed” and the “acute effect of insulin on PKB/Akt phosphorylation” value [7] was “markedly reduced”.
